Legend:
[1] = test system: SF-539 (CNS); test: NCI-60 cytotoxicity assay; type: cell-based; conditions: Homo sapiens; SF-539 CNS; 48 h, sulforhodamine B; read-out: Comparative Cytotoxicity GI50, CNS SF-539
Protocol: (§1) The antiproliferative activities of the indenoisquinoline compounds are determined in the NCI-60 cancer cell lines of the National Cancer Institute Developmental Therapeutics Program (NCI-DTP). […] Cancer cells are incubated with the test compounds at five concentrations ranging from 100 μM to 10 nM for 48 h. After the treated cancer cells are stained with sulforhodamine B dye, the percentage growth is plotted as a function of the common logarithm of the tested compound concentration. […] The approximate average of GI50 values across the entire panel of NCI-60 cancer cell lines for each compound is recorded as the MGM value.
(§2) NCI-60 Cytotoxicity Assay. Compounds were submitted to the National Cancer Institute Developmental Therapeutic Program to determine their growth-inhibitory potentials in NCI-60 cell lines. All compounds satisfied the pre-screening proceeded into the 5-dose cell viability assay, in which cells were treated for 48 h at 5 dosages ranging from 100 μM to 10 nM.

[2] = test system: NCI-60 cancer cell lines; test: NCI-60 cytotoxicity assay, MGM; type: cell-based; conditions: Homo sapiens; entire panel of NCI-60 cancer cell lines; read-out: MGM (approximate average of GI50 values across the NCI-60 panel)
Protocol: as §1, §2

[3] = test system: DU-145 (Prostate); test: NCI-60 cytotoxicity assay; type: cell-based, human; conditions: Homo sapiens; DU-145 prostate; 48 h, sulforhodamine B; read-out: Comparative Cytotoxicity GI50, Prostate DU-145
Protocol: as §1, §2

[4] = test system: UACC-62 (Melanoma); test: NCI-60 cytotoxicity assay; type: cell-based, human; conditions: Homo sapiens; UACC-62 melanoma; 48 h, sulforhodamine B; read-out: Comparative Cytotoxicity GI50, Melanoma UACC-62
Protocol: as §1, §2

[5] = test system: HCT-116 (Colon); test: NCI-60 cytotoxicity assay; type: cell-based, human; conditions: Homo sapiens; HCT-116 colon; 48 h, sulforhodamine B; read-out: Comparative Cytotoxicity GI50, Colon HCT-116
Protocol: as §1, §2

[6] = test system: OVCAR-3 (Ovarian); test: NCI-60 cytotoxicity assay; type: cell-based, human; conditions: Homo sapiens; OVCAR-3 ovarian; 48 h, sulforhodamine B; read-out: Comparative Cytotoxicity GI50, Ovarian OVCAR-3
Protocol: as §1, §2

[7] = test system: SN12C (Renal); test: NCI-60 cytotoxicity assay; type: cell-based, human; conditions: Homo sapiens; SN12C renal; 48 h, sulforhodamine B; read-out: Comparative Cytotoxicity GI50, Renal SN12C
Protocol: as §1, §2

[8] = test system: HOP-62 (Lung); test: NCI-60 cytotoxicity assay; type: cell-based, human; conditions: Homo sapiens; HOP-62 lung; 48 h, sulforhodamine B; read-out: Comparative Cytotoxicity GI50, Lung HOP-62
Protocol: as §1, §2

[9] = test system: MCF7 (Breast); test: NCI-60 cytotoxicity assay; type: cell-based, human; conditions: Homo sapiens; MCF7 breast; 48 h, sulforhodamine B; read-out: Comparative Cytotoxicity GI50, Breast MCE7
Protocol: as §1, §2

| Compound | GI50 [1] [nM] | GI50 [2] [nM] | GI50 [3] [nM] | GI50 [4] [nM] | GI50 [5] [nM] | GI50 [6] [nM] | GI50 [7] [nM] | GI50 [8] [nM] | GI50 [9] [nM] |
| --- | --- | --- | --- | --- | --- | --- | --- | --- | --- |
| COc1cc2c3c(n(CCCN4CCCCC4)c(=O)c2cc1OC)-c1cc2c(cc1C3=O)OCO2 [A6] | 1460 | 1050 | 1370 | 1380 | 420 | 1630 | 1610 | 1050 | 140 |
| COc1cc2c3c(n(CCCNCC4CC4)c(=O)c2cc1OC)-c1cc2c(cc1C3=O)OCO2 [A1] | 760 | 1320 | 760 | 2860 | 1140 | 1420 | 1370 | 350 | 95 |
| COc1cnc2c(c1)C(=O)c1c-2n(CCCNCCO)c(=O)c2cc(OC)c(OC)cc12 [A12] | 490 | 2090 | 730 | 1170 | 1150 | 4520 | 3280 | 350 | 170 |
| CCNCCCn1c2c(c3cc(OC)c(OC)cc3c1=O)C(=O)c1cc(OC)cnc1-2 [A9] | 800 | 1540 | 2160 | 700 | 420 | 3600 | 1440 | 320 | 160 |
| COc1cc2c3c(n(CCCN4CCCC4)c(=O)c2cc1OC)-c1cc2c(cc1C3=O)OCO2 [A4] | 1330 | 1100 | 1310 | 1480 | 1140 | 1500 | 1640 | 800 | 380 |

— patent publication US20240287089A1, “Preparation and Uses of 7-Azaindenoisoquinolines” (Purdue Research Foundation, priority 0001, published 2024)
